According to US20230329140A1, “MAC[…]” (Ralco Nutrition Inc., priority 2019, published 2023):

How the values were obtained:
soybean = assay: Greenhouse soybean pot trial with magnesium lactate; assay type: in vivo
Description: Materials and Methods: One soybean seed was planted in each of the 60 individually marked pots using six different treatments in a randomized complete block design. Plants were grown in the greenhouse under controlled and ideal conditions. All pots were handled and cared for the same exact way throughout their entire growing season. Several measurements were recorded during this trial starting with emergence hours, the number of plants emerged, and unifoliate, 1st trifoliate, 3rd trifoliate, 5th trifoliate, and 7th trifoliate leaf area readings. […] of the measurements that were recorded when this trial was harvested are the number of pods, weight of pods, total soybean seed weight per treatment, and average soybean seed weight per pot.
The magnesium lactate improved the efficiency with which the plant builds chlorophyll when it was applied foliar in sparingly small quantities to soybean plants early in their growth stage.

corn = assay: Greenhouse corn pot trial with magnesium lactate; assay type: in vivo
Description: The corn trial that was conducted using MgL had one corn seed planted in each of the 60 individually marked pots using six different treatments in a randomized complete block design. Plants were grown in the greenhouse under controlled and ideal conditions. All pots were handled and cared for the same exact way throughout their entire growing season. During this trial the emergence hours, the number of plants emerged, and plant height measurements were taken at specific plant stages and recorded. Several measurements were documented when the trial was harvested which were V10 plant height, V10 chlorophyll readings, stalk diameter, and biomass.

CC(O)C(=O)[O-].CC(O)C(=O)[O-].[Mg+2] (stereo not drawn) [MgL, magnesium lactate]
efficiency with which the plant builds chlorophyll (soybean; applied foliar in sparingly small quantities to soybean plants early in their growth stage): improved
soybean yield (average soybean seed weight per pot) (soybean; greenhouse pots, FIG. 8): positive impact
overall performance in comparison to conventional magnesium compounds, such magnesium sulfate (MgSO) (soybean; soybean trial): performed better overall
overall performance in comparison to conventional magnesium compounds, such magnesium sulfate (MgSO) (corn; corn trial): performed better overall
corn biomass (corn; greenhouse pots, FIG. 14): positive impact
growth and development of corn (corn; greenhouse pots, FIGS. 10-14): positive impact
